Results reported in patent publication US20220184172A1, “AMPK/CASPASE-6 AXIS CONTROLS LIVER DAMAGE IN NONALCOHOLIC STEATOHEPATITIS” (The Regents of the University of California, priority 2019, published 2022).

System: CD-HFD fed C57BL/6J mice
Experiment: AMPK agonist A-769662 in CD-HFD-induced NASH, C57BL/6J mice
Type: in vivo
Method: FIGS. 4A-4L. Both an AMPK agonist and a caspase-6 inhibitor therapeutically improve liver damage. FIG. 4A-4I. C57BL/6J mice were fed CD-HFD for 6 weeks, followed by intraperitoneally injection of 25 mg/kg A-769662 or vehicle daily for 2 weeks while continuous CD-HFD. FIG. 4A. Liver sections stained as indicated: TUNEL and DAPI. In the merged image section, the different stains correspond to the grayscale shades as indicated in the single stained images to the left. Scale bar=50 μm. FIG. 4B. Quantification of TUNEL-positive nuclei per field in FIG. 4A. n=7. FIG. 4C-4E. Serum ALT (FIG. 4C), AST (FIG. 4D) and ALP (FIG. 4E). n=7. FIG. 4F. H&E and Sirius red staining of liver sections as indicated. Scale bar=100 μm. FIG. 4G. Quantification of liver fibrosis area (% of total area) in FIG. 4F. n=7. FIG. 4H. Liver hydroxyproline. n=8. FIG. 4I. Expression of Tgfb, Timp1, Col1a1, Col3a1, Pdgfa, Pdgfb, Pdgfra and Ddr2 in livers. n=8. *, P<0.05, Student's unpaired t test. FIGS. 4J-4L. Flox and LAKO mice were fed CD-HFD for 6 weeks, followed by intraperitoneally injection of 5 mg/kg VEID (SEQ ID NO: 71) or vehicle every other day for 2 weeks while continuous feeding. FIG. 4J. Liver sections stained as indicated (TUNEL and DAPI); in the merged image sections, the different stains correspond to the grayscale shades as indicated in the single stained images to the left. Scale bar=50 μm. FIG. 4K. Quantification of TUNEL-positive nuclei per field in FIG. 4J. n=5-6. FIG. 4L. Serum ALT. n=5-6. Mean±SEM. *, P<0.05, two-way ANOVA. FIG. 4 discloses “VEID” as SEQ ID NO: 71.
FIGS. 5A-5K. AMPK phosphorylates caspase-6 to inhibit its cleavage and activation. FIG. 5A. Primary hepatocytes were pretreated 40 μM A-769662 for 1 hr, then treated 30 μg/ml CHX and 50 ng/ml TNFα for 2 hrs. IB analysis of cell lysates. n=3. Mean±SD. *, P<0.05, two-way ANOVA. FIG. 5B. Primary hepatocytes were pretreated 40 μM A-769662 for 1 hr, then treated 250 μM BSA-conjugated palmitic acid (PA) for 2 hrs. Cell lysates were subject to caspase-6 activity assay. Mean±SD. *, P<0.05. FIG. 5C. Caspase-6 Ser^257 locates within AMPK substrate motif. FIG. 5C. discloses SEQ ID NOS 57-63, respectively, in order of appearance. FIG. 5D. In vitro kinase assay using recombinant caspase-6, and recombinant AMPKα1β1γ1 or AMPKα2β1γ1 active kinase. FIG. 5E. Alignment of caspase-6 sequence. FIG. 5E. discloses SEQ ID NOS 64-67, respectively, in order of appearance. FIG. 5F. HEK293T cells overexpressing caspase-6-myc WT, S^257A, S^257D or S^257E mutant were treated with 10 μg/ml CHX and 25 ng/ml TNFα for 2 hrs. IB analysis of cell lysates. FIGS. 5G-5J. C57BL/6J mice were fed CD-HFD for 6 weeks, followed by intraperitoneally injection of 25 mg/kg A-769662 or vehicle daily for 2 weeks while continuous CD-HI-D. Mice were sacrificed 6 hrs after last injection. FIG. 5G. IB analysis of liver lysates. n=5. FIG. 5H. Liver lysates were subject to caspase-6 activity assay. n=7. FIG. 5I. Liver sections stained as indicated therein (aCasp6 and DAPI); in the merged image sections, the different stains correspond to the grayscale shades as indicated in the single stained images to the left. Scale bar=50 μm. FIG. 5J. Quantification of aCasp6 staining per field in FIG. 5I. n=7. Mean±SEM. *, P<0.05, Student's unpaired t test. FIG. 5K. IB analysis of liver lysates from C57BL/6J mice fed ND or CD-HFD. Note: AMPK and pAMPK blots are the same as in FIG. 1B.
FIGS. 13A-13I. A-769662 improves liver damage through AMPK activation in hepatocytes in NASH. C57BL/6J mice were fed with CD-HFD for 8 weeks. After 6 weeks of CD-HFD feeding, mice were intraperitoneally injected with 25 mg/kg A-769662 or vehicle daily for 2 weeks along with continuous CD-HFD feeding. FIG. 13A. Schematic diagram of experimental design. FIG. 13B-13C. Body weight (FIG. 13B) and liver weight (FIG. 13C) of indicated mice. n=7. FIG. 13D. Measurement of liver triglyceride (TG) of indicated mice. n=7. FIG. 13E. […]

[1] = 25 mg/kg i.p. daily for 2 weeks, CD-HFD
[2] = 25 mg/kg i.p. daily for 2 weeks, CD-HFD, sacrificed 6 hrs after last injection
[3] = 25 mg/kg i.p. once per day for two weeks after 6 weeks CD-HFD

For N#Cc1c(O)c2c(-c3ccc(-c4ccccc4O)cc3)csc2[nH]c1=O [A-769662], the “hepatic fibrosis (Sirius red fibrosis area, liver hydroxyproline)” value (25 mg/kg i.p. daily for 2 weeks after 6 weeks CD-HFD) was “attenuated”, the “expression of Col1a1 in liver” value [1] was “significantly reduced” and the “expression of Col3a1 in liver” value [1] was “significantly reduced”. The “expression of Ddr2 in liver” value [1] was “without effect”, the “expression of Pdgfa in liver” value [1] was “significantly reduced” and the “expression of Pdgfb in liver” value [1] was “significantly reduced”. The “expression of Pdgfra in liver” value [1] was “significantly reduced”, the “expression of Tgfb in liver” value [1] was “without effect” and the “expression of inflammation marker gene Adgre1 in liver” value [1] was “without effect”. The “expression of inflammation marker gene Ccl2 in liver” value [1] was “without effect”, the “aCasp6 (active caspase-6) staining of liver sections” value (25 mg/kg i.p. daily for 2 weeks, CD-HFD-induced NASH) was “decreased” and the “caspase-6 activity in vivo (liver lysates)” value [2] was “decreased”. For the same molecule, the “procaspase-6 Ser257 phosphorylation (IB of liver lysates)” value [2] was “significantly increased”, the “hepatic TG” value [3] was “no effect” and the “liver damage (serum ALT, AST, ALP)” value [3] was “improved”. For the same molecule, the “number of apoptotic cells (TUNEL-positive nuclei per field)” value [3] was “significantly reduced”.
